In patent US20040039554A1, “Iterative analysis of non-responding population in the design of pharmacogenetic studies” (priority 2000, published 2004):
Where a name gives a salt, the structure may show the parent alone.

Key:
[1] = system: female patients with IBS (non-constipated); assay: Relief of IBS symptoms in double-blind, placebo controlled clinical trials of alosetron, stratified by 5HTT genotype; format: in vivo, human; conditions: in each of the three 5HTT genotypes
Excerpt: FIG. 1 is a graph based on data collected from female patients enrolled in clinical trials of alosetron for the treatment of IBS. The study population was comprised of non-constipated individuals with IBS. The subjects were divided into 5HTT genotypes. Of the 219 subjects, 71(32.4%) were genotype del/del (deletion/deletion, alternatively denoted as “1/1”) 5HTT, 75 (34.2%) were genotype del/ins (deletion/insertion, alternatively denoted as “1/2”) 5HTT and 73 (33.3%) were genotype ins/ins (insert/insert, alternatively denoted as “2/2”) 5HTT. […] “Response” was defined as relief of IBS symptoms (abdominal pain and discomfort) during six weeks of a twelve week treatment study. Two hundred and nineteen subjects, received either alosetron (102 subjects) or matched placebo (117 subjects). The proportion of patients achieving response following treatment with alosetron was 68% (21/31) for del/del 5HTT, 64% (21/33) for del/ins 5HTT and 58% (22/38) for ins/ins 5HTT. The proportion of patients achieving response following treatment with placebo was 58% (23/40) for del/del 5HTT, 38% (16/42) for del/ins 5HTT and 34% (12/35) for ins/ins 5HTT. […]
The subjects' response to alosetron in the clinical trial setting was reviewed and correlated with genotype. […] The incidence of various other effects, including constipation, was also recorded. […]

[2] = system: patients with Irritable Bowel Syndrome (IBS); conditions: double blind, placebo controlled studies; cited from earlier work

Structure (SMILES): Cc1[nH]cnc1CN1CCc2c(c3ccccc3n2C)C1=O [alosetron, Alosetron hydrochloride]
- effectiveness compared with placebo in relieving IBS symptoms [1]: more effective than placebo
- effect on pain and bowel function in patients with IBS [2]: reduce pain and improve bowel function
